Assay results reported in PubChem BioAssay (NCI).
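Cultured in 96-well plates, cells were exposed to test compound for 48 hours across five concentrations. GI50 = concentration required for 50% inhibition of growth. TGI marks complete inhibition of growth.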

Legend:
Assay in all cases: NCI anticancer screen, dose series, 48 h
A498 renal = system: A498 renal
IGROV1 ovarian = system: IGROV1 ovarian
K-562 leukemia = system: K-562 leukemia
MALME-3M melanoma = system: MALME-3M melanoma
MDA-MB-231 breast = system: MDA-MB-231 breast
SK-MEL-5 melanoma = system: SK-MEL-5 melanoma
SK-OV-3 ovarian = system: SK-OV-3 ovarian
SNB-19 CNS = system: SNB-19 CNS
SNB-75 CNS = system: SNB-75 CNS
UACC-257 melanoma = system: UACC-257 melanoma

SMILES | GI50 (A498 renal) [µM] | TGI (A498 renal) [µM] | GI50 (IGROV1 ovarian) [µM] | TGI (IGROV1 ovarian) [µM] | GI50 (K-562 leukemia) [µM] | TGI (K-562 leukemia) [µM] | GI50 (MALME-3M melanoma) [µM] | TGI (MALME-3M melanoma) [µM] | GI50 (MDA-MB-231 breast) [µM] | TGI (MDA-MB-231 breast) [µM] | GI50 (SK-MEL-5 melanoma) [µM] | TGI (SK-MEL-5 melanoma) [µM] | GI50 (SK-OV-3 ovarian) [µM] | TGI (SK-OV-3 ovarian) [µM] | GI50 (SNB-19 CNS) [µM] | TGI (SNB-19 CNS) [µM] | GI50 (SNB-75 CNS) [µM] | TGI (SNB-75 CNS) [µM] | GI50 (UACC-257 melanoma) [µM] | TGI (UACC-257 melanoma) [µM]
O=C(O)c1cn(C2CC2)c2cc(N3CCN(C(=O)Nc4nc(-c5ccccc5)cs4)CC3)c(F)cc2c1=O | 1.06 | 7.08 | 1.2 | > 100 | 2.05 | > 100 | 1.53 | 6.52 | 2.3 | 9.94 | 0.824 | 2.87 | 1.95 | 7.38 | 1.12 | > 100 | 1.22 | 19.4 | 2.37 | 7.58
COc1ccc2c(c1)CC[C@@H]1[C@@H]2CC[C@]2(C)[C@@H](NC(=O)/C=C/c3ccc(O)c(O)c3)CC[C@@H]12 | 14.3 | 31.1 | 1.98 | 12 | – | – | 11.2 | 25.9 | 2.6 | 15.2 | 3.86 | 16.4 | 11.5 | 27.1 | 15.7 | 48.6 | 21.9 | > 100 | 13.4 | 31.8
COc1ccccc1C1=C(Nc2ccccc2)C(=O)NC1=O | > 25 | > 25 | > 25 | > 25 | > 25 | > 25 | > 25 | > 25 | > 25 | > 25 | > 25 | > 25 | > 25 | > 25 | > 25 | > 25 | > 18.1 | > 25 | – | –
O=[N+]([O-])c1ccc(Oc2nc(Nc3ccc(O[C@H]4CO[C@H]5[C@@H]4OC[C@@H]5O)c(Cl)c3)ncc2F)c(Cl)c1 | 0.669 | 2.38 | 0.493 | 2.77 | 1.31 | 13.3 | 1.07 | 3.17 | 1.6 | 7.39 | 1.29 | 2.59 | – | – | 2.89 | 9.81 | 0.443 | 3.28 | 1.78 | 4.27
COc1ccc(S(=O)(=O)NC2=NCCN2C(=S)SN2CCn3c2nsc3=S)cc1 | 19.9 | 51.1 | 30.6 | > 100 | 28.1 | > 100 | 9.1 | 24.9 | 15 | 36.9 | 17.8 | 31.7 | – | – | 32.9 | > 100 | 19.5 | 42.5 | 16.8 | 50.2
FC(F)(F)c1ccc(-c2cnc(-n3cc(COCCN4CCCCC4)nn3)nc2NC2CCCCCC2)cc1 | 3.56 | 7.04 | 3.9 | 10.2 | 1.75 | 7.21 | 4.24 | 8.47 | 3.47 | 6.86 | 3.46 | 6.74 | 4.04 | 7.62 | 3.61 | 7.11 | 2.72 | 6.4 | – | –
COc1cccc2c1-c1c(c3ccc([N+](=O)[O-])cc3c(=O)n1CCCN)C2=O | 15.7 | 32.8 | 0.289 | 1.99 | 0.218 | 1.12 | – | – | 1.68 | 3.41 | 1.91 | 7.38 | 11.5 | 29.8 | 1.35 | 2.93 | 5.76 | 25.1 | 17.9 | 44.4
C=C1C(=O)O[C@H]2[C@H]1CC/C(COC(=O)CCSCCC(=O)OC/C1=C/CC[C@@]3(C)O[C@H]3[C@H]3OC(=O)C(=C)[C@@H]3CC1)=C\CC[C@@]1(C)O[C@@H]21 | 1.7 | 4.78 | 1.3 | 3.25 | 0.371 | 10.2 | 1.12 | 2.73 | 1.09 | 2.55 | 1.64 | 3.14 | 4.1 | 13.8 | 2.43 | 7.29 | – | – | 1.64 | 3.6
COc1cccc(-c2ccc3c(c2)C2CCN(Cc4ccccc4)C3C2)c1 (configuration not stated) | 3.77 | 17.6 | 8.99 | 76.6 | – | – | 13.4 | 30.4 | 5.61 | 19 | 3.51 | 14.7 | 14.8 | 48.8 | 12.9 | 30.5 | 6.69 | 27.2 | 11.2 | 29.1
COc1cc(-c2cc(-c3ccc(Nc4ccnc5cc(Cl)ccc45)cc3)nc(N3CCOCC3)n2)cc(OC)c1OC | 28.2 | 74.4 | 1.91 | 4.03 | 0.882 | 10.4 | 1.86 | 3.97 | 1.81 | 4 | 3.5 | > 100 | 14.9 | 31.7 | 2.36 | 5.28 | 1.65 | 3.44 | – | –
